Laboratory results published in patent publication US20240018140A1, “MODIFIED IMIDAZOPYRIDINES AS GLUCOSYLCERAMIDE SYNTHASE INHIBITORS” (Merck Sharp & Dohme LLC, priority 2020, published 2024).

Target: glucosylceramide synthase (GCS) (Homo sapiens (Human), UniProt Q16739)
Assay: UDP-Glo glucosylceramide synthase biochemical assay
Conditions: endogenous GCS in Golgi preparations from human A375 malignant melanoma skin cells; C6 ceramide and UDP-glucose substrates; 20 h incubation; UDP detected by luminescence
Source text: UDP-Glo™ Glucosylceramide Synthase Biochemical Assay
A UDP-Glo™ glucosylceramide synthase biochemical assay was utilized to evaluate the effect of test compounds on the activity of endogenous levels of GCS enzyme contained within Golgi preparations isolated from human A375 malignant melanoma skin cells. The UDP-Glo™ glucosylceramide synthase assay uses UDP-Glucose as a nucleotide-glycosyl donor and ceramide as substrate acceptor molecules. In the reaction, glucosylceramide synthase (GCS) transfers glucose from UDP-Glucose to ceramide. Glucosylceramide and UDP are released as products.
Using Promega's UDP-Glo™ Glycosyltransferase assay kit (Promega Corporation, Madison, WI, USA (Promega)), GCS activity was indirectly measured by detecting the amount of UDP produced. An aliquot of GCS enzyme (1.5 μg crude golgi preparation, total protein) and titrated test compound were aliquoted to each well and incubated for 30 minutes at room temperature. […] An equivalent volume of substrate mixture was then added to each well. Following a 20 h incubation at room temperature to allow for GCS turnover of substrate, an equal volume of UDP detection reagent (Promega) was added to each well and incubated for an additional 75 minutes at room temperature to simultaneously convert the accumulated UDP product into ATP and generate light in a luciferase reaction. The generated light was detected using a luminometer. […] luminescence values (RLUs) were normalized to mean “min” and “max” effects, as determined on each plate. “Min” was defined as the mean of the values of the wells treated with vehicle (DMSO) and which represent 0% inhibition; “max” was defined as the mean of the values of the wells treated with a reference inhibitor and which represent the 100% effect. Values for % Emax and EC50 were determined by best-fitting the normalized data to a curve in Activity Base along a four-parameter logistic nonlinear regression (4PL) model (based on the Levenberg-Marquardt algorithm and defined by the equation below): […]
where: n is 4PMin (bottom of the curve); m is 4PMax (top of the curve); i is IP (inflection point of curve); and p is slope. See Levenberg, K., “A Method for the Solution of Certain Problems in Least Squares”, Quart. Appl. Math. 2, (1944), pp 164-168 and Marquardt, D., “An Algorithm for Least Squares Estimation on Nonlinear Parameters”, SIAM J. Appl. Math. 11, (1963) pp 431-441.

Sequence of glucosylceramide synthase (GCS) (Q16739 whole entry): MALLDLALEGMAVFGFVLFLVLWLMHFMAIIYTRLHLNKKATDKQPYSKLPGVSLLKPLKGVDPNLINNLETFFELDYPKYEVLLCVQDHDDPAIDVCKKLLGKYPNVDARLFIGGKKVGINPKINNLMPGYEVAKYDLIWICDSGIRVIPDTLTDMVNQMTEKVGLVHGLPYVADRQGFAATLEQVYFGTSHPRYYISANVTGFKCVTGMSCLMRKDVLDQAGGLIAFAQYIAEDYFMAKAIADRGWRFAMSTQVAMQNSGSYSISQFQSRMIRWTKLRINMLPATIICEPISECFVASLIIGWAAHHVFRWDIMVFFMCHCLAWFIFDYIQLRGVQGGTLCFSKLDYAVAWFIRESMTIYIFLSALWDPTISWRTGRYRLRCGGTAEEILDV

How did the EC50 turn out when `O=C(N[C@@H]1COC[C@@H]1F)c1cn2cc(Cl)cc(-c3ccccc3OCC(F)(F)F)c2n1` [Compound 45, 6-chloro-N-((3R,4R)-4-fluorotetrahydrofuran-3-yl)-8-(2-(2,2,2-trifluoroethoxy)phenyl)imidazo[1,2-a]pyridine-2-carboxamide] was run?
The EC50 was 4.3 nM.

`COCC(C)(C)NC(=O)c1cn2cccc(-c3ccccc3OCC(F)(F)F)c2n1` [Compound 11, N-(1-methoxy-2-methylpropan-2-yl)-8-(2-(2,2,2-trifluoroethoxy)phenyl)imidazo[1,2-a]pyridine-2-carboxamide] was tested. Which EC50 did it give?
The EC50 was 38 nM.

With `CC(C)(CO)NC(=O)c1cn2cc(C(F)(F)F)cc(-c3ccccc3OCC(F)(F)F)c2n1` [Compound 37, N-(1-hydroxy-2-methylpropan-2-yl)-8-(2-(2,2,2-trifluoroethoxy)phenyl)-6-(trifluoromethyl)imidazo[1,2-a]pyridine-2-carboxamide] as the compound, how does the EC50 read?
Its EC50 is 4.5 nM.

Which EC50 does the source give for `CC(C)(NC(=O)c1cn2cc(C#N)cc(-c3ccccc3OCC(F)(F)F)c2n1)C(F)(F)F` [Compound 44, 6-cyano-N-(1,1,1-trifluoro-2-methylpropan-2-yl)-8-(2-(2,2,2-trifluoroethoxy)phenyl)imidazo[1,2-a]pyridine-2-carboxamide] here?
Its EC50 is 8.3 nM.

How did the EC50 turn out when `CC1(CO)COC(c2cn3cc(Cl)cc(-c4ccccc4OCC(F)(F)F)c3n2)=N1` (centres unmarked) [Compound 73, [2-[6-chloro-8-[2-(2,2,2-trifluoroethoxy)phenyl]imidazo[1,2-a]pyridin-2-yl]-4-methyl-5H-oxazol-4-yl]methanol] was run?
The EC50 was 32 nM.

How did the EC50 turn out when `O=C(N[C@H]1C[C@@H](O)C1)c1cc2c(-c3ccccc3OCC(F)(F)F)cccc2cn1` [Compound 84] was run?
The EC50 was 16 nM.

With `CC(C)(CO)NC(=O)c1cn2cc(Cl)cc(-c3ccccc3OCC(F)(F)F)c2n1` [Compound 20, 6-chloro-N-(1-hydroxy-2-methylpropan-2-yl)-8-(2-(2,2,2-trifluoroethoxy)phenyl)imidazo[1,2-a]pyridine-2-carboxamide] as the compound, how does the EC50 read?
Its EC50 is 0.86 nM.

Which EC50 does the source give for `NCC1CN=C(c2cn3cc(Cl)cc(-c4ccccc4OCC(F)(F)F)c3n2)O1` (centres unmarked) [Compound 74, (2-(6-chloro-8-(2-(2,2,2-trifluoroethoxy)phenyl)imidazo[1,2-a]pyridin-2-yl)-4,5-dihydrooxazol-5-yl)methanamine] here?
The EC50 was 12 nM.

For `CC(C)(CO)NC(=O)c1cn2cccc(-c3ccccc3OCC(F)(F)F)c2n1` [Compound 1, N-(1-hydroxy-2-methylpropan-2-yl)-8-(2-(2,2,2-trifluoroethoxy)phenyl)imidazo[1,2-a]pyridine-2-carboxamide], which EC50 is on record?
Its EC50 is 9.8 nM.

With `CC(C)(NC(=O)c1cn2cccc(-c3ccccc3OCC(F)(F)F)c2n1)C(F)(F)F` [Compound 3, N-(1,1,1-trifluoro-2-methylpropan-2-yl)-8-(2-(2,2,2-trifluoroethoxy)phenyl)imidazo[1,2-a]pyridine-2-carboxamide] as the compound, how does the EC50 read?
The EC50 was 3.1 nM.

`CC(C)(O)C1(C)CN=C(c2cn3cc(Cl)cc(-c4ccccc4OCC(F)(F)F)c3n2)O1` (centres unmarked) [Compound 77, 2-[2-[6-chloro-8-[2-(2,2,2-trifluoroethoxy)phenyl]imidazo[1,2-a]pyridin-2-yl]-5-methyl-4H-oxazol-5-yl]propan-2-ol] was tested. Which EC50 did it give?
Its EC50 is 3.7 nM.

`O=C(N[C@H]1CCOC1)c1cn2cc(Cl)cc(-c3ccccc3OCC(F)(F)F)c2n1` [Compound 5, (S)-6-chloro-N-(tetrahydrofuran-3-yl)-8-(2-(2,2,2-trifluoroethoxy)phenyl)imidazo[1,2-a]pyridine-2-carboxamide] was tested. Which EC50 did it give?
The EC50 was 0.91 nM.

`O=C(N[C@H]1CCCOC1)c1cn2cc(C(F)(F)F)cc(-c3ccccc3OCC(F)(F)F)c2n1` [Compound 42, (S)-N-(tetrahydro-2H-pyran-3-yl)-8-(2-(2,2,2-trifluoroethoxy)phenyl)-6-(trifluoromethyl)imidazo[1,2-a]pyridine-2-carboxamide] was tested. Which EC50 did it give?
The EC50 was 2.5 nM.

Which EC50 does the source give for `CC(C)(O)c1cn2cc(Cl)cc(-c3ccc(F)cc3OCC(F)(F)F)c2n1` [Compound 67, 2-(6-chloro-8-(4-fluoro-2-(2,2,2-trifluoroethoxy)phenyl)imidazo[1,2-a]pyridin-2-yl) propan-2-ol] here?
The EC50 was 67 nM.

With `CC(O)c1cn2cc(C(F)(F)F)cc(-c3ccccc3OCC(F)(F)F)c2n1` (single isomer, unassigned) [Compound 63, (R or S) 1-(8-(2-(2,2,2-trifluoroethoxy)phenyl)-6-(trifluoromethyl)imidazo[1,2-a]pyridin-2-yl)ethan-1-ol] as the compound, how does the EC50 read?
The EC50 was 5.7 nM.

Which EC50 does the source give for `O=C(c1cn2cccc(-c3ccccc3OCC(F)(F)F)c2n1)N1CCOC2(CCOC2)C1` (racemic) [Compound 50, (R and S)-(2,6-dioxa-9-azaspiro[4.5]decan-9-yl)(8-(2-(2,2,2-trifluoroethoxy)phenyl)imidazo[1,2-a]pyridin-2-yl)methanone] here?
The EC50 was 21 nM.

`O=C(N[C@H]1CC[C@H](O)C[C@H]1F)c1cn2cc(Cl)cc(-c3ccccc3OCC(F)(F)F)c2n1` (mixture of isomers) [Compound 22, 6-chloro-N-((1S,2R,4S and 1R, 2S,4R)-2-fluoro-4-hydroxycyclohexyl)-8-(2-(2,2,2-trifluoroethoxy)phenyl)imidazo[1,2-a]pyridine-2-carboxamide] was tested. Which EC50 did it give?
Its EC50 is 0.72 nM.

For `O=C(c1cn2cccc(-c3ccccc3OCC(F)(F)F)c2n1)N1CCn2ccnc2C1` [Compound 55, (5,6-dihydroimidazo[1,2-a]pyrazin-7(8H)-yl)(8-(2-(2,2,2-trifluoroethoxy)phenyl)imidazo[1,2-a]pyridin-2-yl)methanone], which EC50 is on record?
The EC50 was 2.9 nM.

With `O=C(c1cn2cccc(-c3ccccc3OCC(F)(F)F)c2n1)N1CC2CC1(CF)C2` [Compound 48, (1-(fluoromethyl)-2-azabicyclo[2.1.1]hexan-2-yl)(8-(2-(2,2,2-trifluoroethoxy)phenyl)imidazo[1,2-a]pyridin-2-yl)methanone] as the compound, how does the EC50 read?
Its EC50 is 4.5 nM.

`O=C(Nc1cccnc1)c1cn2cc(F)cc(-c3ccccc3OCC(F)(F)F)c2n1` [Compound 61, 6-fluoro-N-(pyridin-3-yl)-8-(2-(2,2,2-trifluoroethoxy)phenyl)imidazo[1,2-a]pyridine-2-carboxamide] was tested. Which EC50 did it give?
Its EC50 is 0.083 nM.

How did the EC50 turn out when `O=C(NC1(CO)CCCC1)c1cn2cccc(-c3ccccc3OCC(F)(F)F)c2n1` [Compound 21, N-(1-(hydroxymethyl)cyclopentyl)-8-(2-(2,2,2-trifluoroethoxy)phenyl)imidazo[1,2-a]pyridine-2-carboxamide] was run?
Its EC50 is 11 nM.

For `O=C(NCc1ccccn1)c1cn2cccc(-c3ccccc3OCC(F)(F)F)c2n1` [Compound 52, N-(pyridin-2-ylmethyl)-8-(2-(2,2,2-trifluoroethoxy)phenyl)imidazo[1,2-a]pyridine-2-carboxamide], which EC50 is on record?
The EC50 was 13 nM.

Which EC50 does the source give for `Cc1ccncc1NC(=O)c1cn2cccc(-c3ccccc3OCC(F)(F)F)c2n1` [Compound 56, N-(4-methylpyridin-3-yl)-8-(2-(2,2,2-trifluoroethoxy)phenyl)imidazo[1,2-a]pyridine-2-carboxamide] here?
Its EC50 is 0.15 nM.

For `OC(c1cn2cc(F)cc(-c3ccccc3OCC(F)(F)F)c2n1)C1CCOCC1` (centres unmarked) [Compound 68, (6-fluoro-8-(2-(2,2,2-trifluoroethoxy)phenyl)imidazo[1,2-a]pyridin-2-yl)(tetrahydro-2H-pyran-4-yl)methanol], which EC50 is on record?
Its EC50 is 10 nM.

Which EC50 does the source give for `O=C(NC12CCC(O)(CC1)C2)c1cn2cc(Cl)cc(-c3ccccc3OCC(F)(F)F)c2n1` [Compound 25, 6-chloro-N-(4-hydroxybicyclo[2.2.1]heptan-1-yl)-8-(2-(2,2,2-trifluoroethoxy)phenyl)imidazo[1,2-a]pyridine-2-carboxamide] here?
The EC50 was 2.5 nM.

Which EC50 does the source give for `CC(CO)(NC(=O)c1cn2cccc(-c3ccccc3OCC(F)(F)F)c2n1)C(F)(F)F` (single isomer, unassigned) [Compound 10, (R or S)-N-(1,1,1-trifluoro-3-hydroxy-2-methylpropan-2-yl)-8-(2-(2,2,2-trifluoroethoxy)phenyl)imidazo[1,2-a]pyridine-2-carboxamide] here?
Its EC50 is 7.2 nM.

For `CC(C)(O)C1COC(c2cn3cc(Cl)cc(-c4ccccc4OCC(F)(F)F)c3n2)=N1` (centres unmarked) [Compound 75, 2-(2-(6-chloro-8-(2-(2,2,2-trifluoroethoxy)phenyl)imidazo[1,2-a]pyridin-2-yl)-4,5-dihydrooxazol-4-yl)propan-2-ol], which EC50 is on record?
The EC50 was 30 nM.

How did the EC50 turn out when `CC(C)(O)C1(C)COC(c2cn3cc(Cl)cc(-c4ccccc4OCC(F)(F)F)c3n2)=N1` (centres unmarked) [Compound 78, 2-[2-[6-chloro-8-[2-(2,2,2-trifluoroethoxy)phenyl]imidazo[1,2-a]pyridin-2-yl]-4-methyl-5H-oxazol-4-yl]propan-2-ol] was run?
The EC50 was 32 nM.

Which EC50 does the source give for `CC(C)(NC(=O)c1nc2c(-c3ccccc3OCC(F)(F)F)cccn2c1F)C(F)(F)F` [Compound 33, 3-fluoro-N-(1,1,1-trifluoro-2-methylpropan-2-yl)-8-(2-(2,2,2-trifluoroethoxy)phenyl)imidazo[1,2-a]pyridine-2-carboxamide] here?
The EC50 was 14 nM.
